# Assays:
# A549 = assay: CellTiter-Glo cell viability of senescent A549 cancer cells (Example 12, Table 67); type: cell-based, human; conditions: Homo sapiens, A549, doxorubicin-induced senescent A549 cancer cells, 1.1 μM test compound, CellTiter-Glo; read-out: Survival (%)
# p16, p21 [1] = assay: qRT-PCR of p16 and p21 mRNA in replicative senescent foreskin cells (Example 4); type: cell-based, human; conditions: LX-112 3 μM; senescent untreated = 100%
# Experimental: In the same manner as Example 3, natural aging of human foreskin cells was induced, treated with LX-112 at a concentration of 3 μM, and the amounts of the mRNA of p16 and p21, aging-related markers, were analyzed by qRT-PCR (quantitative real-time PCR). As a control group, foreskin cells before senescence induction were used. Specifically, cells were collected and treated with TRIzol Reagent (purchased from Thermo Fisher Scientific) to extract total RNA. The concentration of extracted total RNA was quantified using Nanodrop (purchased from Micro Digital). Genomic DNA was removed from the extracted total RNA using SuperScript IV VILO Master Mix with ezDNase Enzyme (purchased from Thermo Fisher Scientific), and cDNA was prepared. Using the synthesized cDNA, using the housekeeping gene GAPDH as a standard, qRT-PCR for p16 and p21 was performed using SFCgreen I qPCR Master Mix (purchased from SFC Probe), and was analyzed with CFX Connect Real-Time PCR Detection System (purchased from Bio Rad). […] Table 14 calculates the mRNA amounts of p16 and p21 after senescence was induced to 100%, respectively, and compared them with the mRNA amounts of p16 and p21 after treatment with LX-112.
# [2] = system: aging-related inflammation and fibrosis secretory factors (SASP); assay: ProcartaPlex immunoassay of SASP factors in culture medium of senescent foreskin cells (Example 5); type: cell-based, human; conditions: LX-112 3 μM; senescent untreated = 100%
# Experimental: In the same manner as Example 3, natural aging of human foreskin cells was induced and treated with LX-112 at a concentration of 3 μM. Then the expression levels of aging-related inflammation and fibrosis secretory factors (SASP), IL1α, IL1β, IL6, IL10, MCP1, PAI1 VCAM1, MMP1, MMP2, MMP3, MMP12, and TGFβ, were measured using an immunoassay (ProcartaPlex Immunoassay, purchased from Thermo Fisher Scientific) with the obtained culture medium. […] Table 17 calculates the amount of each factor after inducing aging to 100% and compares it with the amount of each factor after treatment with LX-112.
# SA-β-gal = SA-β-gal staining of tissues of doxorubicin-aged mice (Example 8-3); type: in vivo, C57BL6J mice; conditions: stained area; doxorubicin-aged mice, LX-112 70 mg/kg oral daily 21 days
# Experimental: (§1) After adapting 8-week-old male C57BL6J mice (purchased from KRIBB Laboratory Animal Resource Center) to the experimental environment for 1 week, doxorubicin, an anticancer drug, was administered intraperitoneally at a concentration of 10 mg/kg, and mice that were induced to age for more than 10 days were assigned to an experimental group and a control group. LX-112 was mixed with 0.5% CMC-Na solution (purchased from Sigma) and administered orally at a concentration of 70 mg/kg daily for 21 days. The control group was administered only the solution in the same volume. After drug administration was completed, the method described in each Example below was performed.
# Mice were sacrificed in the same method in described in Example 7-3, and tissue sections were prepared from the organ tissues of each region. SA-β-gal, an aging marker was stained. […] FIG. 3 is a photographic result of staining of adipose tissue.
# [3] = system: foreskin cells, replicative senescence (REP); assay: CellTiter-Glo cell viability of replicative senescent foreskin cells (Example 3-2); type: cell-based, human; conditions: 3 days
# AST, ALT = assay: serum AST and ALT in doxorubicin-aged mice (Example 8-8); type: in vivo, C57BL6J mice; conditions: doxorubicin-aged mice, LX-112 70 mg/kg oral daily 21 days, DOX without LX = 100%
# Experimental: as §1
# In the same manner as in Example 7-5, the amounts of AST (aspartate aminotransferase) and ALT (alanine transaminase) released into the blood during liver damage were measured by spectrophotometry in the serum collected from mice using a kit (purchased from Sigma) according to the method described in the manual. […] Table 50 calculates the amount of each factor after aging was induced by treatment with the anticancer drug as 100% and compared it with the amount of each factor after treatment with LX-112.
# [4] = chlorhexidine gluconate-induced peritoneal fibrosis in mice (Example 6-2); type: in vivo, C57BL6J mice; conditions: 0.1% CHG 10 ml/kg i.p. every 2 days for 20 days; LX-112 70 mg/kg i.p. daily from day 9
# Experimental: After 8-week-old male C57BL6J mice (purchased from KRIBB Laboratory Animal Resource Center) were adapted to the experimental environment for 1 week, the mice were randomized into an experimental group and a control group. To induce peritoneal fibrosis, 0.1% chlorhexidine gluconate (CHG, purchased from Sigma) was dissolved in 15% ethanol phosphate buffer solution and administered intraperitoneally at a concentration of 10 ml/kg every 2 days for 20 days. From day 9, LX-112 was mixed with 0.5% CMC-Na solution (purchased from Sigma) and administered intraperitoneally at a concentration of 70 mg/kg every day. The control group (−) was administered only the solution in the same volume. On the 20th day, paraffin sections of peritoneal tissue prepared by fixation in 4% paraformaldehyde solution were stained with H/E (Hematoxylin/Eosin) and trichrome, and the thickness of the peritoneal mesothelial cell layer was measured under a light microscope.
# p16, p21 [5] = assay: p16 and p21 mRNA qRT-PCR in doxorubicin-aged mice (Example 8-2); type: in vivo, C57BL6J mice; conditions: doxorubicin-aged mice, LX-112 70 mg/kg oral daily 21 days; DOX without LX = 100%
# Experimental: as §1
# The mouse was sacrificed in the same manner as in Example 7-2, RNA was extracted from the organ tissue of each region, and qRT-PCR was performed and analyzed using the synthesized cDNA. […] Table 37 calculates the mRNA amounts of p16 and p21 after aging was induced by treatment with the anticancer drug as 100% and compared them with the mRNA amounts of p16 and p21 after treatment with LX-112.
smiles,measurement,setting,value
COC(=O)c1ccc([C@H]2c3[nH]c4ccccc4c3C[C@H](C(=O)OC)N2C(=O)CCl)cc1 [LX-405],viability at 1.1 µM,A549,23.8%
"O=c1c2ccccc2[se]n1CCn1[se]c2ccccc2c1=O [LX-112, 1,2-[bis(1,2-benzisoselenazolone-3(2H)-ketone)]ethane]",mRNA (%) p16,"p16, p21 [1]",43 (±4) %
same,mRNA (%) p21,"p16, p21 [1]",39 (±7) %
same,Protein (%) IL1α,[2],57 (±5) %
same,Protein (%) IL1β,[2],46 (±6) %
same,Protein (%) IL6,[2],41 (±4) %
same,Protein (%) IL10,[2],57 (±7) %
same,Protein (%) MCP1,[2],38 (±8) %
same,Protein (%) MMP1,[2],43 (±3) %
same,Protein (%) MMP2,[2],39 (±9) %
same,Protein (%) MMP3,[2],38 (±8) %
same,Protein (%) MMP12,[2],41 (±6) %
same,Protein (%) PAI1,[2],41 (±4) %
same,Protein (%) TGFβ,[2],49 (±9) %
same,Protein (%) VCAM1,[2],45 (±5) %
same,SA-β-gal (%) Kidney,SA-β-gal,69.2 (±10.2) %
same,SA-β-gal (%) Liver,SA-β-gal,67.4 (±9.9) %
same,SA-β-gal (%) Lung,SA-β-gal,64.2 (±9.2) %
same,SA-β-gal (%) eWAT,SA-β-gal,51.4 (±13.4) %
same,Survival (%),[3]; LX-112 1.1 μM,59 (±6) %
same,Survival (%),[3]; LX-112 10 μM,1 (±0.9) %
same,ALT (%),"AST, ALT",72.2 (±14.1) %
same,AST (%),"AST, ALT",78 (±17.3) %
same,Submesothelial Thickness (μm),[4],43.1 (±10.4) μm
same,p16 mRNA (%) Kidney,"p16, p21 [5]",75 (±14.81) %
same,p16 mRNA (%) Liver,"p16, p21 [5]",70 (±8.3) %
same,p16 mRNA (%) eWAT,"p16, p21 [5]",72 (±18.75) %
same,p21 mRNA (%) Kidney,"p16, p21 [5]",83.8 (±9.5)^ %
same,p21 mRNA (%) Liver,"p16, p21 [5]",78 (±11.5) %
same,p21 mRNA (%) eWAT,"p16, p21 [5]",68.4 (±15.1)^ %

# Reference: US20250108036A1, “COMPOSITIONS FOR REMOVING SENESCENT CELLS AND USES THEREOF” (LIFECEUTIX CO., LTD., priority 2021, published 2025)
